Reference: publication PMC10023664, “Hiat1 as a new transporter involved in ammonia regulation” (Scientific Reports, 2023)

Test system: Carcinus maenas Hiat1 (CmHiat1)
Conditions: 0.5-20 mM NH4Cl in OR2 bath; room temperature; net flux of whole oocyte, not sham-subtracted (endogenous NH4+ uptake present)

Q: Which Km does the source give for N [NH4^+] here?
A: The Km was 2300 µM.
